Experimental findings from paper PMC3174061 (Journal of the American Chemical Society, 2011) are described below.

In one data set the target is LipO (Streptomyces sp. SANK 60405, UniProt D4QF28). Briefly: UV/Vis spectroscopy, co-purification. It is filed as binding. The settings on record: co-purified cofactor, Lys282 internal aldimine expected.
For a further data set, the target named is LipN (Streptomyces sp. SANK 60405, UniProt D4QF27). Briefly: HPLC, MS and NMR of product. It is filed as biochemical. Particulars: sugar donor, uridine as surrogate acceptor, 5 mM MgCl2, 30 °C.
Substrate in the data set “purified protein”: NC[C@H]1O[C@@H](n2ccc(=O)[nH]c2=O)[C@H](O)[C@@H]1O
Kind of data set: purified protein. It is filed as biochemical, Escherichia coli. The settings on record: pH 7.5, […] phosphate, 30 °C.

As usually defined, the kcat is the number of substrate molecules converted per active site and unit of time at saturation.

`Cc1ncc(COP(=O)(O)O)c(C=O)c1O` [PLP]: the “UV/Vis spectroscopy, co-purification” value on LipO is on record as “shown by UV/Vis spectroscopy to co-purify with the cofactor PLP”.
For `NC[C@H]1O[C@H](OP(=O)(O)OP(=O)(O)OC[C@H]2O[C@@H](n3ccc(=O)[nH]c3=O)[C@H](O)[C@@H]2O)[C@H](O)[C@@H]1O` [UDP-5-amino-5-deoxy-α-D-ribose], on LipN, the “HPLC, MS and NMR of product; donor generated in situ by LipP and LipM” value was “higher yields were obtained with the genuine sugar donor UDP-5-amino-5-deoxy-α-D-ribose”.

B1: EcUdp (Escherichia coli K-12) (protein)
chain: SKSDVFHLGLTKNDLQGATLAIVPGDPDRVEKIAALMDKPVKLASHREFTTWRAELDGKPVIVCSTGIGGPSTSIAVEELAQLGIRTFLRIGTTGAIQPHINVGDVLVTTASVRLDGASLHFAPLEFPAVADFECTTALVEAAKSIGATTHVGVTASSDTFYPGQERYDTYSGRVVRHFKGSMEEWQAMGVMNYEMESATLLTMCASQGLRAGMVAGVIVNRTQQEIPNAETMKQTESHAVKIVVEAARRLL
B1: in the data set “purified protein”, the Km entry is recorded as “(2.0 ± 0.5) × 10^3 µM” and the catalytic constant (kcat) is 5.33 ± 0.667 s⁻¹.
